Assay type in all cases: biochemical
Experiment [1] has as its target T1, NUAK2 (h) (Homo sapiens, UniProt Q9H093).
T1 construct: This assay was done radiometrically using full-length, recombinant enzyme; purchased Eurofins
T1 sequence (Q9H093 1-628): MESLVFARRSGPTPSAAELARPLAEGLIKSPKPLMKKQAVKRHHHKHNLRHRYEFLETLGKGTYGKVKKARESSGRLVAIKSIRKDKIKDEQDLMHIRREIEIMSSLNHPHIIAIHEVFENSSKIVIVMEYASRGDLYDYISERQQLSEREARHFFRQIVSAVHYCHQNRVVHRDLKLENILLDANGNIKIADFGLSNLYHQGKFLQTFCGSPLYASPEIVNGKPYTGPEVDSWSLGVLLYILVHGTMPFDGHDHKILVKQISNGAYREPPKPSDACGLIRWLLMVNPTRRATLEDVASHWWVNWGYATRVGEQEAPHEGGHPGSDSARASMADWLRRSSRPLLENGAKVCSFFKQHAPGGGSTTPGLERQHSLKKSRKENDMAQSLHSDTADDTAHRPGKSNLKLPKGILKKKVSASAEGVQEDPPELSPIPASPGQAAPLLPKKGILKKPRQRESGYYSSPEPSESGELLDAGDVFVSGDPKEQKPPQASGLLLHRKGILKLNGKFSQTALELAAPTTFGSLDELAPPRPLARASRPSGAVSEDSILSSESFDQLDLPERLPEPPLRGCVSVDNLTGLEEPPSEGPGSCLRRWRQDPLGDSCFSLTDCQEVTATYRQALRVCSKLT
In words: NUAK2 enzymatic assay (radiometric, Eurofins). The settings on record: full-length recombinant enzyme. The method, boiled down:
(§1)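 Full-length recombinant NUAK2 incubated 40 min at room temperature in 8 mM MOPS pH 7.0, 0.2 mM EDTA, 10 mM magnesium acetate, 300 μM peptide substrate and 33P-ATP. Stopped with 0.5% phosphoric acid; filter-bound label counted by scintillation. IC50 reported as ranges; NUAK1 and Aurora A served as counter-screens.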

The target of experiment [2] is T2, NUAK1 (Homo sapiens, UniProt O60285).
T2 sequence (O60285 1-661): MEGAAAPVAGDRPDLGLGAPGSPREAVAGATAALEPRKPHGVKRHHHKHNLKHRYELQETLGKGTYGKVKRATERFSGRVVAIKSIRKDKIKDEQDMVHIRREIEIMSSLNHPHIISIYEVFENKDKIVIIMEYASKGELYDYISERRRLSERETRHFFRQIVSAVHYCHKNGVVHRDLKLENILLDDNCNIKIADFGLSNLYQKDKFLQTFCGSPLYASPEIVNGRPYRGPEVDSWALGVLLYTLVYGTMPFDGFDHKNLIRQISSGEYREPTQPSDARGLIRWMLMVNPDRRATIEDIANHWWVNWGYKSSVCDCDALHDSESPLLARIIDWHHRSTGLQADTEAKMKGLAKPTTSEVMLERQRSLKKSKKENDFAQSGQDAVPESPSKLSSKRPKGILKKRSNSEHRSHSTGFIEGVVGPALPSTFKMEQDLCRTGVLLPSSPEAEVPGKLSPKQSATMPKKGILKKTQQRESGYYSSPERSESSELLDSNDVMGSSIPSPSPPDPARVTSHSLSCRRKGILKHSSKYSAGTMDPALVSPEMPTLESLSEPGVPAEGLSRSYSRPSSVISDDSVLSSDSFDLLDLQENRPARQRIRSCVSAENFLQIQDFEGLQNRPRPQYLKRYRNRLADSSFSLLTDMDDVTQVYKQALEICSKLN
Briefly: Counter-screen against NUAK1. The method in brief: as §1

In experiment [3] the target is T3, Aurora A (Homo sapiens, UniProt O14965).
T3 sequence (O14965 1-403): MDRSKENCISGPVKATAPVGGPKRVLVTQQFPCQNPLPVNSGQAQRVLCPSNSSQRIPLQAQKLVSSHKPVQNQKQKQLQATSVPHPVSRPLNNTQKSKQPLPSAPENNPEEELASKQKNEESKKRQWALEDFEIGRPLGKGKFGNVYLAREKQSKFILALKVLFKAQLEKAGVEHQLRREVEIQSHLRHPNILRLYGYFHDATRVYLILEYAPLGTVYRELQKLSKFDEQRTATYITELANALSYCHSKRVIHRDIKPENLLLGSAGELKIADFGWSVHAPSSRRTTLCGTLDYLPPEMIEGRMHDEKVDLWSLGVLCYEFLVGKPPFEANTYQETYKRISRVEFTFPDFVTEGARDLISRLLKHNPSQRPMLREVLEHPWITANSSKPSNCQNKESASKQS
Briefly: Counter-screen against Aurora A. Conditions: read-out: AUR-A (IC50). The method in brief: as §1
On the technique in general: The purpose of a counterscreen is to sort out artefacts and off-target activity.

This passage reports IC50 results from patent publication US12643886B2 (Ontario Institute for Cancer Research (OICR), priority 2021, dated 2026).

Usually IC50 stands for the point on the concentration scale where inhibition reaches its midpoint. For `COc1c(Nc2ncc(C(F)(F)F)c(Nc3cccc4c3C(=O)NC4)n2)ccc(N2C[C@H]3CN(C)C[C@H]3C2)c1F` [Compound I-35, 7-((2-((3-fluoro-2-methoxy-4-((3aR,6aS)-5-methylhexahydropyrrolo[3,4-c]pyrrol-2(1H)-yl)phenyl)amino)-5-(trifluoromethyl)pyrimidin-4-yl)amino)isoindolin-1-one], the half-maximal inhibitory concentration (IC50) in experiment [1] was 11 to 100 nM; in experiment [2], 11 to 100 nM; in experiment [3] it was 101 to 1000 nM.
For `CN1C[C@@H]2CN(c3ccc(Nc4ncc(Cl)c(Nc5cccc6c5C(=O)NC6)n4)c(OC(F)F)c3)C[C@@H]2C1` [Compound I-28, 7-((5-chloro-2-((2-(difluoromethoxy)-4-((3aR,6aS)-5-methylhexahydropyrrolo[3,4-c]pyrrol-2(1H)-yl)phenyl)amino)pyrimidin-4-yl)amino)isoindolin-1-one], the IC50 in experiment [1] was 0.1 to 10 nM; in experiment [2], 11 to 100 nM; in experiment [3], > 1000 nM.
Take `CCN(CC)CCOc1ccc(Nc2ncc(C(F)(F)F)c(Nc3cccc4c3C(=O)NC4)n2)cc1` [Compound I-61, 7-((2-((4-(2-(diethylamino)ethoxy)phenyl)amino)-5-(trifluoromethyl)pyrimidin-4-yl)amino)isoindolin-1-one]: the 50% inhibitory concentration (IC50) lay within 11 to 100 nM in experiment [1], 11 to 100 nM in experiment [2] and 101 to 1000 nM in experiment [3].
On to `COc1c(Nc2ncc(Cl)c(Nc3cccc4c3C(=O)NC4)n2)ccc(N2CCC(N3CCN(C)CC3)CC2)c1F` [Compound I-7, 7-((5-chloro-2-((3-fluoro-2-methoxy-4-(4-(4-methylpiperazin-1-yl)piperidin-1-yl)phenyl)amino)pyrimidin-4-yl)amino)isoindolin-1-one], for which the half-maximal inhibitory concentration (IC50) in experiment [1] was 11 to 100 nM; in experiment [2], 11 to 100 nM; in experiment [3], 101 to 1000 nM.
As to `COc1cc2c(cc1Nc1ncc(C(F)(F)F)c(Nc3cccc4c3C(=O)NC4)n1)CCN(C)C2` [Compound I-22, 7-((2-((7-methoxy-2-methyl-1,2,3,4-tetrahydroisoquinolin-6-yl)amino)-5-(trifluoromethyl)pyrimidin-4-yl)amino)isoindolin-1-one], the IC50 was in the range of 0.1 to 10 nM in experiment [1], 11 to 100 nM in experiment [2] and 101 to 1000 nM in experiment [3].
The corresponding values for `CC(C)(C)N1CCN(C2CCN(c3ccc(Nc4ncc(C(F)(F)F)c(Nc5cccc6c5C(=O)NC6)n4)c(OC(F)F)c3)CC2)CC1` [Compound I-31, 7-((2-((4-(4-(4-(tert-butyl)piperazin-1-yl)piperidin-1-yl)-2-(difluoromethoxy)phenyl)amino)-5-(trifluoromethyl)pyrimidin-4-yl)amino)isoindolin-1-one] are 0.1 to 10 nM, 11 to 100 nM and 101 to 1000 nM.
In the case of `CC(C)Oc1cc(N2CCN(C)CC2)ccc1Nc1ncc(Cl)c(Nc2cccc3c2C(=O)NC3)n1` [Compound I-11, 7-((5-chloro-2-((2-isopropoxy-4-(4-methylpiperazin-1-yl)phenyl)amino)pyrimidin-4-yl)amino)isoindolin-1-one], the concentration for half-maximal inhibition (IC50) in experiment [1] was 101 to 1000 nM; in experiment [2], > 1000 nM; in experiment [3], > 1000 nM.
`CCN1CCN(c2ccc(Nc3ncc(C(F)(F)F)c(Nc4cccc5c4C(=O)NC5)n3)c(OC(F)F)c2)CC1` [Compound I-78, 7-((2-((2-(difluoromethxoy)-4-(4-ethylpiperazin-1-yl)phenyl)amino)-5-(trifluoromethyl)pyrimidin-4-yl)amino)isoindolin-1-one]: the 50% inhibitory concentration (IC50) in experiment [1] was in the range of 0.1 to 10 nM; in experiment [2], 11 to 100 nM; in experiment [3], 101 to 1000 nM.
For `CC(C)N1CCN(C2CCN(c3ccc(Nc4ncc(C(F)(F)F)c(Nc5cccc6c5C(=O)NC6)n4)c(OC(F)F)c3)CC2)CC1` [Compound I-32, 7-((2-((2-(difluoromethoxy)-4-(4-(4-isopropylpiperazin-1-yl)piperidin-1-yl)phenyl)amino)-5-(trifluoromethyl)pyrimidin-4-yl)amino)isoindolin-1-one], the 50% inhibitory concentration (IC50) in experiment [1] lay in the range of 11 to 100 nM; in experiment [2], 11 to 100 nM; in experiment [3] it was 101 to 1000 nM.
On to `COc1nc(N2CCN(C)CC2)ccc1Nc1ncc(C(F)(F)F)c(Nc2cccc3c2C(=O)NC3)n1` [Compound I-68, 7-((2-((2-methoxy-6-(4-methylpiperazin-1-yl)pyridin-3-yl)amino)-5-(trifluoromethyl)pyrimidin-4-yl)amino)isoindolin-1-one], for which the half-inhibitory concentration (IC50) was 0.1 to 10 nM in experiment [1], 11 to 100 nM in experiment [2] and 101 to 1000 nM in experiment [3].
Regarding `COc1cc2c(cc1Nc1ncc(Cl)c(Nc3cccc4c3C(=O)NC4)n1)CCN(CCC(F)(F)F)C2` [Compound I-19, 7-((5-chloro-2-((7-methoxy-2-(3,3,3-trifluoropropyl)-1,2,3,4-tetrahydroisoquinolin-6-yl)amino)pyrimidin-4-yl)amino)isoindolin-1-one], the values for the IC50 in experiment [1], in experiment [2] and in experiment [3] were 11 to 100 nM, 101 to 1000 nM and > 1000 nM, respectively.
The corresponding values for `COc1cc2c(cc1Nc1ncc(Cl)c(Nc3cccc4c3C(=O)NC4)n1)CN(C)CC2` [Compound I-3, 7-((5-chloro-2-((6-methoxy-2-methyl-1,2,3,4-tetrahydroisoquinolin-7-yl)amino)pyrimidin-4-yl)amino)isoindolin-1-one] are 11 to 100 nM, 101 to 1000 nM and 101 to 1000 nM.
With `COc1cc2c(cc1Nc1ncc(Cl)c(Nc3cccc4c3C(=O)NC4)n1)CCN(C)C2` [Compound I-12, 7-((5-chloro-2-((7-methoxy-2-methyl-1,2,3,4-tetrahydroisoquinolin-6-yl)amino)pyrimidin-4-yl)amino)isoindolin-1-one], the IC50 was 0.1 to 10 nM in experiment [1], 11 to 100 nM in experiment [2] and > 1000 nM in experiment [3].
Turning to `COc1cc2c(cc1Nc1ncc(Cl)c(Nc3cccc4c3C(=O)NC4)n1)CCN(C(C)C)C2` [Compound I-18, 7-((5-chloro-2-((2-isopropyl-7-methoxy-1,2,3,4-tetrahydroisoquinolin-6-yl)amino)pyrimidin-4-yl)amino)isoindolin-1-one], the half-maximal inhibitory concentration (IC50) in experiment [1] was 0.1 to 10 nM; in experiment [2] it was 11 to 100 nM; in experiment [3] it was > 1000 nM.
For the molecule `COc1cc2c(cc1Nc1ncc(F)c(Nc3cccc4c3C(=O)NC4)n1)CCNC2` [Compound I-43, 7-((5-fluoro-2-((7-methoxy-1,2,3,4-tetrahydroisoquinolin-6-yl)amino)pyrimidin-4-yl)amino)isoindolin-1-one], the concentration for half-maximal inhibition (IC50) was in the range of 11 to 100 nM in experiment [1], 101 to 1000 nM in experiment [2] and 101 to 1000 nM in experiment [3].
As to `C[C@@H]1CN(C2CCN(c3ccc(Nc4ncc(C(F)(F)F)c(Nc5cccc6c5C(=O)NC6)n4)c(OC(F)F)c3)CC2)C[C@H](C)N1C` [Compound I-48, 7-((2-((2-(difluoromethoxy)-4-(4-((3S,5R)-3,4,5-trimethylpiperazin-1-yl)piperidin-1-yl)phenyl)amino)-5-(trifluoromethyl)pyrimidin-4-yl)amino)isoindolin-1-one], the half-maximal inhibitory concentration (IC50) lay within 0.1 to 10 nM in experiment [1], 11 to 100 nM in experiment [2] and 101 to 1000 nM in experiment [3].
